Patent US20260285850A1, “SUBSTITUTED OXAZOLIDINONES AND IMIDAZOLINONES AS HERBICIDES” (FMC CORPORATION, priority 2023, published 2026)

Key:
Assay type in all cases: in vivo
rice (Oryza sativa) = assay: Test B flooded paddy test, visual plant response rating 0-100; conditions: 250 g ai/ha, Flood, applied to paddy water, evaluated after 13 days
Summary of the method: (§1)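 Visual scores versus untreated controls were recorded 13 days after treatment of greenhouse-held plants. At the 2-leaf stage, pots were flooded 3 cm above the soil surface and compounds added straight to the water.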

[1] = system: sedge, umbrella (small-flower umbrella sedge, Cyperus difformis); assay: as above; conditions: 250 g ai/ha, Flood, applied to paddy water, evaluated after 13 days
Summary of the method: as §1

[2] = system: barnyardgrass (Echinochloa crusgalli); assay: as above; conditions: 250 g ai/ha, Flood, applied to paddy water, evaluated after 13 days
Summary of the method: as §1

[3] = system: ducksalad (Heteranthera limosa); assay: as above; conditions: 250 g ai/ha, Flood, applied to paddy water, evaluated after 13 days
Summary of the method: as §1

[4] = system: ragweed (common ragweed, Ambrosia artemisiifolia); assay: Test A preemergence soil spray, visual injury rating 0-100; conditions: 10 days
Summary of the method: (§2)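 Plants in a loam and sand soil blend were treated with each test chemical, in a non-phytotoxic solvent system including surfactant, either sprayed on seeded soil before emergence or applied after emergence at the one- to two-leaf stage. Ten days later in the greenhouse, plants were compared with untreated controls and visually rated from 0 (no effect) to 100 (complete control).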

[5] = system: blackgrass (Alopecurus myosuroides); assay: as above; conditions: 10 days
Summary of the method: as §2

soybean (Glycine max) [6] = assay: as above; conditions: 10 days
Summary of the method: as §2

[7] = system: wheat (Triticum aestivum); assay: as above; conditions: 10 days
Summary of the method: as §2

[8] = system: oat, wild (wild oat, Avena fatua); assay: as above; conditions: 10 days
Summary of the method: as §2

kochia (Bassia scoparia) [9] = assay: as above; conditions: 10 days
Summary of the method: as §2

[10] = system: green foxtail (Setaria viridis); assay: as above; conditions: 10 days
Summary of the method: as §2

corn (Zea mays) [11] = assay: as above; conditions: 10 days
Summary of the method: as §2

[12] = system: barnyardgrass (Echinochloa crus-galli); assay: as above; conditions: 10 days
Summary of the method: as §2

[13] = system: ryegrass, Italian (italian ryegrass, Lolium multiflorum); assay: as above; conditions: 10 days
Summary of the method: as §2

[14] = system: ragweed (common ragweed, Ambrosia artemisiifolia); assay: Test A postemergence application, visual injury rating 0-100
Summary of the method: as §2

[15] = system: blackgrass (Alopecurus myosuroides); assay: as above
Summary of the method: as §2

soybean (Glycine max) [16] = assay: as above
Summary of the method: as §2

[17] = system: wheat (Triticum aestivum); assay: as above
Summary of the method: as §2

[18] = system: oat, wild (wild oat, Avena fatua); assay: as above
Summary of the method: as §2

[19] = system: palmer (palmer amaranth, palmer pigweed, Amaranthus palmeri); assay: as above
Summary of the method: as §2

kochia (Bassia scoparia) [20] = assay: as above
Summary of the method: as §2

[21] = system: green foxtail (Setaria viridis); assay: as above
Summary of the method: as §2

corn (Zea mays) [22] = assay: as above
Summary of the method: as §2

[23] = system: horseweed (Erigeron canadensis); assay: as above
Summary of the method: as §2

[24] = system: barnyardgrass (Echinochloa crus-galli); assay: as above
Summary of the method: as §2

[25] = system: ryegrass, Italian (italian ryegrass, Lolium multiflorum); assay: as above
Summary of the method: as §2

[26] = system: galium (catchweed bedstraw, Galium aparine); assay: as above
Summary of the method: as §2

[27] = 62 g ai/ha, 0 = no effect, 100 = complete control
[28] = 62 g ai/ha, postemergence, 10 days, 0 = no effect, 100 = complete control
[29] = Postemergence, 16 g ai/ha, greenhouse 10 days, 0 no effect, 100 complete control

**Q.** With `CC1(C(=O)NC2CC=C(C(=O)OCC(F)(F)F)C2)CN(c2cc(F)cc(Cl)c2)C(=O)O1` (centres unmarked) [Compound 141] as the compound, how does the “Plant response rating, Rice (0 to 100 scale, 0 is no effect and 100 is complete control)” value (rice (Oryza sativa)) read?
**A.** 50

**Q.** And the “Plant response rating, Sedge, Umbrella (0 to 100 scale, 0 is no effect and 100 is complete control)” value [1]?
**A.** 85

**Q.** And the “Plant response rating, Barnyardgrass (0 to 100 scale, 0 is no effect and 100 is complete control)” value [2]?
**A.** 90

**Q.** And the “Plant response rating, Ducksalad (0 to 100 scale, 0 is no effect and 100 is complete control)” value [3]?
**A.** 65

**Q.** What about the “Ragweed plant response rating” value ([4]; 16 g ai/ha, 0 to 100 scale) of the same compound?
**A.** 0

**Q.** What about the “Ragweed plant response rating (0-100)” value [4, 27] of the same compound?
**A.** 0

**Q.** What about the “Blackgrass plant response rating” value ([5]; 16 g ai/ha, 0 to 100 scale) of the same compound?
**A.** 0

**Q.** And the “Blackgrass plant response rating (0-100)” value [5, 27]?
**A.** 80

**Q.** And the “Soybean plant response rating” value (soybean (Glycine max) [6]; 16 g ai/ha, 0 to 100 scale)?
**A.** 0

**Q.** And the “Soybean plant response rating (0-100)” value (soybean (Glycine max) [6]; [27])?
**A.** 70

**Q.** And the “Wheat plant response rating” value ([7]; 16 g ai/ha, 0 to 100 scale)?
**A.** 80

**Q.** And the “Wheat plant response rating (0-100)” value [7, 27]?
**A.** 90

**Q.** What about the “Oat, Wild plant response rating” value ([8]; 16 g ai/ha, 0 to 100 scale) of the same compound?
**A.** 0

**Q.** What about the “Oat, Wild plant response rating (0-100)” value [8, 27] of the same compound?
**A.** 40

**Q.** What about the “Kochia plant response rating” value (kochia (Bassia scoparia) [9]; 16 g ai/ha, 0 to 100 scale) of the same compound?
**A.** 0

**Q.** What about the “Kochia plant response rating (0-100)” value (kochia (Bassia scoparia) [9]; [27]) of the same compound?
**A.** 80

**Q.** What about the “Foxtail, Green plant response rating” value ([10]; 16 g ai/ha, 0 to 100 scale) of the same compound?
**A.** 20

**Q.** And the “Foxtail, Green plant response rating (0-100)” value [10, 27]?
**A.** 90

**Q.** What about the “Corn plant response rating” value (corn (Zea mays) [11]; 16 g ai/ha, 0 to 100 scale) of the same compound?
**A.** 10

**Q.** What about the “Corn plant response rating (0-100)” value (corn (Zea mays) [11]; [27]) of the same compound?
**A.** 70

**Q.** What about the “Barnyardgrass plant response rating” value ([12]; 16 g ai/ha, 0 to 100 scale) of the same compound?
**A.** 0

**Q.** And the “Barnyardgrass plant response rating (0-100)” value [12, 27]?
**A.** 70

**Q.** And the “Ryegrass, Italian plant response rating” value ([13]; 16 g ai/ha, 0 to 100 scale)?
**A.** 50

**Q.** What about the “Ryegrass, Italian plant response rating (0-100)” value [13, 27] of the same compound?
**A.** 90

**Q.** What about the “Ragweed plant response rating (0-100)” value [14, 28] of the same compound?
**A.** 60

**Q.** What about the “Ragweed plant response rating (0 to 100 scale)” value [14, 29] of the same compound?
**A.** 30

**Q.** And the “Blackgrass plant response rating (0-100)” value [15, 28]?
**A.** 90

**Q.** And the “Blackgrass plant response rating (0 to 100 scale)” value [15, 29]?
**A.** 90

**Q.** What about the “Soybean plant response rating (0-100)” value (soybean (Glycine max) [16]; [28]) of the same compound?
**A.** 70

**Q.** And the “Soybean plant response rating (0 to 100 scale)” value (soybean (Glycine max) [16]; [29])?
**A.** 70

**Q.** And the “Wheat plant response rating (0-100)” value [17, 28]?
**A.** 90

**Q.** What about the “Wheat plant response rating (0 to 100 scale)” value [17, 29] of the same compound?
**A.** 90

**Q.** And the “Oat, Wild plant response rating (0-100)” value [18, 28]?
**A.** 80

**Q.** What about the “Oat, Wild plant response rating (0 to 100 scale)” value [18, 29] of the same compound?
**A.** 20

**Q.** What about the “Pigweed, Palmer plant response rating (0-100)” value [19, 28] of the same compound?
**A.** 90

**Q.** What about the “Pigweed, Palmer plant response rating (0 to 100 scale)” value [19, 29] of the same compound?
**A.** 70

**Q.** And the “Kochia plant response rating (0-100)” value (kochia (Bassia scoparia) [20]; [28])?
**A.** 90

**Q.** And the “Kochia plant response rating (0 to 100 scale)” value (kochia (Bassia scoparia) [20]; [29])?
**A.** 70

**Q.** What about the “Foxtail, Green plant response rating (0-100)” value [21, 28] of the same compound?
**A.** 90

**Q.** And the “Foxtail, Green plant response rating (0 to 100 scale)” value [21, 29]?
**A.** 90

**Q.** And the “Corn plant response rating (0-100)” value (corn (Zea mays) [22]; [28])?
**A.** 100

**Q.** And the “Corn plant response rating (0 to 100 scale)” value (corn (Zea mays) [22]; [29])?
**A.** 100

**Q.** And the “Horseweed plant response rating (0-100)” value [23, 28]?
**A.** 80

**Q.** And the “Horseweed plant response rating (0 to 100 scale)” value [23, 29]?
**A.** 60

**Q.** And the “Barnyardgrass plant response rating (0-100)” value [24, 28]?
**A.** 100

**Q.** What about the “Barnyardgrass plant response rating (0 to 100 scale)” value [24, 29] of the same compound?
**A.** 100

**Q.** What about the “Ryegrass, Italian plant response rating (0-100)” value [25, 28] of the same compound?
**A.** 80

**Q.** And the “Ryegrass, Italian plant response rating (0 to 100 scale)” value [25, 29]?
**A.** 20

**Q.** What about the “Galium plant response rating (0-100)” value [26, 28] of the same compound?
**A.** 80

**Q.** What about the “Galium plant response rating (0 to 100 scale)” value [26, 29] of the same compound?
**A.** 80
